Read-outs that look alike come from different tables or passages of the source.
What was measured:
human CXCR3A = human CXCR3A (Homo sapiens (Human), UniProt P49682); assay: FLIPR assay; type: cell-based; details: CHO-K1 cells expressing the human CXCR3A coupled to Galpha(16); CXCL10 agonist 20 nM; Fluo-4-AM fluorescence; mean values if determined several times
Summary of the method: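 CHO-K1 cells expressing CXCR3A coupled to Gα16 were loaded with Fluo-4-AM for 1 h in Hepes-buffered HBSS, pH 7.4, with 5 mM probenecid. Compound dilutions were added on the FLIPR, followed by CXCL10 (added as a 20 nM solution). Baseline-subtracted peak fluorescence was fitted to a single-site curve for IC50.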

CXCR3 = CXCR3 (Homo sapiens (Human), UniProt P49682); assay: Receptor internalization assay; type: cell-based; details: read-out: Internalization IC50
Summary of the method: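 In human whole blood, compounds were incubated with CXCL10 (9 nM final) for 30 min at 37 °C to drive receptor internalization, then stained with anti-CXCR3/CD3 antibodies and lysed of red cells. Flow cytometry measured mean surface CXCR3 fluorescence on CD3+ cells, and IC50 came from single-site dose-response fits.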

[1] = human whole blood, final CXCL10 concentration 9 nM, 30 min 37° C., CXCR3 cell surface expression on CD3 positive cells, flow cytometer

human CXCR3A, sequence (P49682 whole entry): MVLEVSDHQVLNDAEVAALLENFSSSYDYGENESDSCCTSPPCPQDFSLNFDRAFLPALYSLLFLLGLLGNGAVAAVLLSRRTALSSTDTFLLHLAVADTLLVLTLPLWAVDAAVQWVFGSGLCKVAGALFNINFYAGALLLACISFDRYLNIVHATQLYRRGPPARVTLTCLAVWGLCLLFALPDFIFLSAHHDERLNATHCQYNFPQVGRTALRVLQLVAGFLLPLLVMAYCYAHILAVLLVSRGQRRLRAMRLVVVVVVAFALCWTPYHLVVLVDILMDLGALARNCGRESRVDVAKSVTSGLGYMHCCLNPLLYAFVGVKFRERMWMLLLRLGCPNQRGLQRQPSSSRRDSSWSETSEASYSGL
CXCR3, sequence (P49682 whole entry): as above

| IC50 (human CXCR3A) [nM] | IC50 (CXCR3; [1]) [nM] | Compound | IC50 (CXCR3) [nM] |
| --- | --- | --- | --- |
| 4 | 1460 | Cc1cc(CC(=O)N2CCN(c3sc(C(F)(F)F)nc3-c3nc4ccccc4[nH]3)C[C@H]2C)cc(C)n1 [Example 219] | – |
| 19 | 2620 | Cc1cc(C)nc(CC(=O)N2CCN(c3sc(C(F)(F)F)nc3-c3nc4ccccc4[nH]3)C[C@H]2C)c1 [Example 220] | – |
| 6 | 1090 | C[C@@H]1CN(c2sc(C(F)(F)F)nc2-c2nc3ccccc3[nH]2)CCN1C(=O)Cn1cc(C2CCNCC2)cn1 [Example 221, 1-{(R)-4-[4-(1H-Benzoimidazol-2-yl)-2-trifluoromethyl-thiazol-5-yl]-2-methyl-piperazin-1-yl}-2-(4-piperidin-4-yl-pyrazol-1-yl)-ethanone] | – |
| 1 | 363 | O=C(Cn1cnc2cccnc21)N1CCN(c2sc(C(F)(F)F)nc2-c2nc3ccccc3[nH]2)CC1 [Example 226, 1-{4-[4-(1H-Benzoimidazol-2-yl)-2-trifluoromethyl-thiazol-5-yl]-piperazin-1-yl}-2-imidazo[4,5-b]pyridin-3-yl-ethanone] | – |
| 8 | 69 | Cc1nc(C)n(CC(=O)N2CCN(c3sc(C(F)(F)F)nc3-c3nc4ccccc4[nH]3)C[C@H]2CN(C)C)n1 [Example 227, 1-{(R)-4-[4-(1H-Benzoimidazol-2-yl)-2-trifluoromethyl-thiazol-5-yl]-2-dimethylaminomethyl-piperazin-1-yl}-2-(3,5-dimethyl-[1,2,4]triazol-1-yl)-ethanone] | – |
| 4 | 12 | CN(C)C[C@@H]1CN(c2sc(C(F)(F)F)nc2-c2nc3ccccc3[nH]2)CCN1C(=O)Cn1cnc2cccnc21 [Example 228, 1-{(R)-4-[4-(1H-Benzoimidazol-2-yl)-2-trifluoromethyl-thiazol-5-yl]-2-dimethylaminomethyl-piperazin-1-yl}-2-imidazo[4,5-b]pyridin-3-yl-ethanone] | – |
| 1 | 98 | CN(C)C[C@@H]1CN(c2scnc2-c2nc3ccccc3[nH]2)CCN1C(=O)Cn1cnc2cccnc21 [Example 229, 1-{(R)-4-[4-(1H-Benzoimidazol-2-yl)-thiazol-5-yl]-2-dimethylaminomethyl-piperazin-1-yl}-2-imidazo[4,5-b]pyridin-3-yl-ethanone] | – |
| 1 | 332 | Cc1nc(C)n(CC(=O)N2CCN(c3sc(C(F)(F)F)nc3-c3nc4c(F)c(F)ccc4[nH]3)C[C@H]2C)n1 [Example 231, 1-{(R)-4-[4-(4,5-Difluoro-1H-benzoimidazol-2-yl)-2-trifluoromethyl-thiazol-5-yl]-2-methyl-piperazin-1-yl}-2-(3,5-dimethyl-[1,2,4]triazol-1-yl)-ethanone] | – |
| 7 | 494 | Cc1nc(C)n(CC(=O)N2CCN(c3sc(C(F)(F)F)nc3-c3nc4c(C(F)(F)F)cccc4[nH]3)C[C@H]2C)n1 [Example 232, 2-(3,5-Dimethyl-[1,2,4]triazol-1-yl)-1-{(R)-2-methyl-4-[2-trifluoromethyl-4-(4-trifluoromethyl-1H-benzoimidazol-2-yl)-thiazol-5-yl]-piperazin-1-yl}-ethanone] | – |
| 6 | 822 | Cc1nc(C)n(CC(=O)N2CCN(c3sc(C(F)(F)F)nc3-c3nc4ccc(-n5cncn5)cc4[nH]3)C[C@H]2C)n1 [Example 234, 2-(3,5-Dimethyl-[1,2,4]triazol-1-yl)-1-{(R)-2-methyl-4-[4-(6-[1,2,4]triazol-1-yl-1H-benzoimidazol-2-yl)-2-trifluoromethyl-thiazol-5-yl]-piperazin-1-yl}-ethanone] | – |
| 0.1 | 324 | Cc1nc(C)n(CC(=O)N2CCN(c3sc(C(F)(F)F)nc3-c3nc4cc(CCN)ccc4[nH]3)C[C@H]2C)n1 [Example 239, 1-((R)-4-{4-[5-(2-Amino-ethyl)-1H-benzoimidazol-2-yl]-2-trifluoromethyl-thiazol-5-yl}-2-methyl-piperazin-1-yl)-2-(3,5-dimethyl-[1,2,4]triazol-1-yl)-ethanone] | – |
| 2 | 169 | Cc1nc(C)n(CC(=O)N2CCN(c3sc(C(F)(F)F)nc3-c3nc4cc(OC(F)(F)F)ccc4[nH]3)C[C@H]2C)n1 [Example 241, 2-(3,5-Dimethyl-[1,2,4]triazol-1-yl)-1-{(R)-2-methyl-4-[4-(5-trifluoromethoxy-1H-benzoimidazol-2-yl)-2-trifluoromethyl-thiazol-5-yl]-piperazin-1-yl}-ethanone] | – |
| 23 | 531 | Cc1nc(C)n(CC(=O)N2CCN(c3sc(C(F)(F)F)nc3-c3nc4ccc(CCN5CCCC5)cc4[nH]3)C[C@H]2C)n1 [Example 244, 2-(3,5-Dimethyl-[1,2,4]triazol-1-yl)-1-((R)-2-methyl-4-{4-[6-(2-pyrrolidin-1-yl-ethyl)-1H-benzoimidazol-2-yl]-2-trifluoromethyl-thiazol-5-yl}-piperazin-1-yl)-ethanone] | – |

| Compound | IC50 (human CXCR3A) [nM] | IC50 (CXCR3; [1]) [nM] | IC50 (CXCR3) [nM] |
| --- | --- | --- | --- |
| C[C@@H]1CN(c2sc(C(F)(F)F)nc2-c2nc3ccccc3[nH]2)CCN1C(=O)Cn1cc(C2CCN(C)CC2)cn1 [Example 222, 1-{(R)-4-[4-(1H-Benzoimidazol-2-yl)-2-trifluoromethyl-thiazol-5-yl]-2-methyl-piperazin-1-yl}-2-[4-(1-methyl-piperidin-4-yl)-pyrazol-1-yl]-ethanone] | 16 | 1500 | – |
| C[C@@H]1CN(c2sc(CN(C)C)nc2-c2nc3ccccc3[nH]2)CCN1C(=O)Cn1cnc2cccnc21 [Example 223, 1-{(R)-4-[4-(1H-Benzoimidazol-2-yl)-2-dimethylaminomethyl-thiazol-5-yl]-2-methyl-piperazin-1-yl}-2-imidazo[4,5-b]pyridin-3-yl-ethanone] | 27 | 1130 | – |
| C[C@@H]1CN(c2sc(CO)nc2-c2nc3ccccc3[nH]2)CCN1C(=O)Cn1cnc2cccnc21 [Example 225, 1-{(R)-4-[4-(1H-Benzoimidazol-2-yl)-2-hydroxymethyl-thiazol-5-yl]-2-methyl-piperazin-1-yl}-2-imidazo[4,5-b]pyridin-3-yl-ethanone] | 54 | 3460 | – |
| Cc1nc(C)n(CC(=O)N2CCN(c3sc(C(F)(F)F)nc3-c3nc4c(F)cccc4[nH]3)C[C@H]2C)n1 [Example 230, 2-(3,5-Dimethyl-[1,2,4]triazol-1-yl)-1-{(R)-4-[4-(4-fluoro-1H-benzoimidazol-2-yl)-2-trifluoromethyl-thiazol-5-yl]-2-methyl-piperazin-1-yl}-ethanone] | 1 | 139 | – |
| Cc1nc(C)n(CC(=O)N2CCN(c3sc(C(F)(F)F)nc3-c3nc4ccc(N5CCOCC5)cc4[nH]3)C[C@H]2C)n1 [Example 233, 2-(3,5-Dimethyl-[1,2,4]triazol-1-yl)-1-{(R)-2-methyl-4-[4-(6-morpholin-4-yl-1H-benzoimidazol-2-yl)-2-trifluoromethyl-thiazol-5-yl]-piperazin-1-yl}-ethanone] | 6 | 376 | – |
| Cc1nc(C)n(CC(=O)N2CCN(c3sc(C(F)(F)F)nc3-c3nc4ccc(-c5noc(C)n5)cc4[nH]3)C[C@H]2C)n1 [Example 236, 2-(3,5-Dimethyl-[1,2,4]triazol-1-yl)-1-((R)-2-methyl-4-{4-[6-(5-methyl-[1,2,4]oxadiazol-3-yl)-1H-benzoimidazol-2-yl]-2-trifluoromethyl-thiazol-5-yl}-piperazin-1-yl)-ethanone] | 3 | 265 | – |
| Cc1nc(C)n(CC(=O)N2CCN(c3sc(C(F)(F)F)nc3-c3nc4ccc(C5CCN(C)CC5)cc4[nH]3)C[C@H]2C)n1 [Example 237, 2-(3,5-Dimethyl-[1,2,4]triazol-1-yl)-1-((R)-2-methyl-4-{4-[6-(1-methyl-piperidin-4-yl)-1H-benzoimidazol-2-yl]-2-trifluoromethyl-thiazol-5-yl}-piperazin-1-yl)-ethanone] | 2 | – | 84 |
| Cc1nc(C)n(CC(=O)N2CCN(c3sc(C(F)(F)F)nc3-c3nc4ccc(C5CCOCC5)cc4[nH]3)C[C@H]2C)n1 [Example 238, 2-(3,5-Dimethyl-[1,2,4]triazol-1-yl)-1-((R)-2-methyl-4-{4-[6-(tetrahydro-pyran-4-yl)-1H-benzoimidazol-2-yl]-2-trifluoromethyl-thiazol-5-yl}-piperazin-1-yl)-ethanone] | 1 | 103 | – |
| Cc1nc(C)n(CC(=O)N2CCN(c3sc(C(F)(F)F)nc3-c3nc4ccc(C5CCNCC5)cc4[nH]3)C[C@H]2C)n1 [Example 240, 2-(3,5-Dimethyl-[1,2,4]triazol-1-yl)-1-{(R)-2-methyl-4-[4-(6-piperidin-4-yl-1H-benzoimidazol-2-yl)-2-trifluoromethyl-thiazol-5-yl]-piperazin-1-yl}-ethanone] | 2 | 222 | – |
| Cc1nc(C)n(CC(=O)N2CCN(c3sc(C(F)(F)F)nc3-c3nc4ccc(OC5CNC5)cc4[nH]3)C[C@H]2C)n1 [Example 242, 1-((R)-4-{4-[6-(Azetidin-3-yloxy)-1H-benzoimidazol-2-yl]-2-trifluoromethyl-thiazol-5-yl}-2-methyl-piperazin-1-yl)-2-(3,5-dimethyl-[1,2,4]triazol-1-yl)-ethanone] | 4 | 438 | – |
| Cc1nc(C)n(CC(=O)N2CCN(c3sc(C(F)(F)F)nc3-c3nc4ccccc4[nH]3)C[C@@H]2C)n1 [Example 243, 1-{(S)-4-[4-(1H-Benzoimidazol-2-yl)-2-trifluoromethyl-thiazol-5-yl]-2-methyl-piperazin-1-yl}-2-(3,5-dimethyl-[1,2,4]triazol-1-yl)-ethanone] | 3 | 1120 | – |
